In brackets after ≈: the same amount, converted by molar mass.

Holding throughout (type): functional
For assay [1], the system named is P388. In words: Cytotoxicity against mouse P388 cells after 72 hrs by MTT assay. The note with it: P388, 72 h, read-out: ED50 (the source's name). (In general: Tetrazolium dyes change colour on reduction, which living cells bring about.)
Assay [2] relates to HL-60. In words: Cytotoxicity against human HL60 cells after 72 hrs by MTT assay. To be noted: HL-60, 72 h, read-out: ED50 (the source's name).
Assay [3] deals with HL-60. The experiment in a line: Potency index, ratio of ED50 for Ascidiacyclamide to ED50 test compound against human HL60 cells after 72 hrs by MTT assay.
For assay [4], the system named is P388. The experiment in a line: Cytotoxicity against mouse P388 cells after 72 hrs by MTT assay relative to Ascidiacyclamide.

Regarding `CC[C@H](C)[C@@H]1NC(=O)c2csc(n2)[C@@H](C(C)C)NC(=O)[C@@H]2CCCN2C(=O)[C@H]([C@@H](C)CC)NC(=O)c2csc(n2)[C@@H](C(C)C)NC(=O)[C@@H]2CCCN2C1=O`, the EC50 came out at 19.4 µg/mL (≈ 24.7 µM) in assay [1] and 10.4 µg/mL (≈ 13.2 µM) in assay [2]. The “Ratio ED50” value in assay [3] came out at 3.
For `CC[C@H](C)[C@@H]1NC(=O)c2csc(n2)[C@@H](C(C)C)NC(=O)[C@@H]2CCN2C(=O)[C@H]([C@@H](C)CC)NC(=O)c2csc(n2)[C@@H](C(C)C)NC(=O)[C@@H]2CCN2C1=O`, the EC50 in assay [1] and in assay [2] was above 100 µg/mL throughout.
Regarding `CC[C@H](C)[C@@H]1NC(=O)c2csc(n2)[C@@H](C(C)C)NC(=O)[C@@H]2C=CCN2C(=O)[C@H]([C@@H](C)CC)NC(=O)c2csc(n2)[C@@H](C(C)C)NC(=O)[C@@H]2C=CCN2C1=O`, the EC50 in assay [1] and in assay [2] was above 100 µg/mL throughout.
On to `CC[C@H](C)[C@@H]1NC(=O)c2csc(n2)[C@@H](C(C)C)NC(=O)[C@@H]2CCCCN2C(=O)[C@H]([C@@H](C)CC)NC(=O)c2csc(n2)[C@@H](C(C)C)NC(=O)[C@@H]2CCCCN2C1=O`, for which the EC50 was found to be 15.8 µg/mL (≈ 19.4 µM) in assay [1] and 15 µg/mL (≈ 18.4 µM) in assay [2]. Moreover, the Activity in assay [4] is listed as 66%. Besides, the “Ratio ED50” value in assay [3] was 2.
For the compound `CC[C@H](C)[C@@H]1NC(=O)c2csc(n2)[C@@H](C(C)C)NC(=O)[C@H]2N=C(O[C@@H]2C)[C@H]([C@@H](C)CC)NC(=O)c2csc(n2)[C@@H](C(C)C)NC(=O)[C@H]2N=C1O[C@@H]2C` [ASCIDIACYCLAMIDE], the EC50 in assay [1] was determined as 10.5 µg/mL (≈ 13.9 µM).

The values are drawn from ChEMBL document CHEMBL4177647, “Conformational properties of ascydiacyclamide analogues with cyclic α-amino acids instead of oxazoline residues” (2017).
